# In patent publication US12194095B2, “Combinations and uses thereof” (Incyte Corporation, priority 2015, dated 2025):
# “Also recorded” adds a separate entry of the source.
# B1: MOR00208: anti-CD19 antibody; variable domains in FIG. 1, Fc regions in FIG. 2 (antibody)
# heavy: EVQLVESGGGLVKPGGSLKLSCAASGYTFTSYVMHWVRQAPGKGLEWIGYINPYNDGTKYNEKFQGRVTISSDKSISTAYMELSSLRSEDTAMYYCARGTYYYGTRVFDYWGQGTLVTVSSASTKGPSVFPLAPSSKSTSGGTAALGCLVKDYFPEPVTVSWNSGALTSGVHTFPAVLQSSGLYSLSSVVTVPSSSLGTQTYICNVNHKPSNTKVDKKVEPKSCDKTHTCPPCPAPELLGGPDVFLFPPKPKDTLMISRTPEVTCVVVDVSHEDPEVQFNWYVDGVEVHNAKTKPREEQFNSTFRVVSVLTVVHQDWLNGKEYKCKVSNKALPAPEEKTISKTKGQPREPQVYTLPPSREEMTKNQVSLTCLVKGFYPSDIAVEWESNGQPENNYKTTPPMLDSDGSFFLYSKLTVDKSRWQQGNVFSCSVMHEALHNHYTQKSLSLSPGK
# light: DIVMTQSPATLSLSPGERATLSCRSSKSLQNVNGNTYLYWFQQKPGQSPQLLIYRMSNLNSGVPDRFSGSGSGTEFTLTISSLEPEDFAVYYCMQHLEYPITFGAGTKLEIKRTVAAPSVFIFPPSDEQLKSGTASVVCLLNNFYPREAKVQWKVDNALQSGNSQESVTEQDSKDSTYSLSSTLTLSKADYEKHKVYACEVTHQGLSSPVTKSFNRGEC
# System: MEC-1 cells
# Assay: ADCC cytotoxicity (target cell killing) of MEC-1 cells with NK cells, MOR00208 and Idelalisib alone and in combination
# Format: cell-based, human
# Description: The cytotoxicity of MOR00208 and Idelalisib alone and in combination were tested in the MEC-1 cell line.
# Idelalisib is a phosphoinositide 3-kinase inhibitor; more specifically, it blocks P110δ, the delta isoform of the enzyme phosphoinositide 3-kinase. […] MOR00208 targets CD19 and mediates target cell killing via ADCC.
# The following were used as controls: a) MEC-1 cells+RefmAb33+DMSO+NK cells, b) MEC-1 cells+DMSO+NK cells, c) MEC-1 cells+DMSO.
# Target cell killing was measured using the following parameters: Idelalisib at concentrations of 0.3, 1, 3 and 10 μM; MOR00208 at concentrations of 1.5, 0.015 and 0.0015 μg/ml and the combination of MOR00208 and Idelalisib at the same concentrations.
# In the Idelalisib group, […] in the MOR00208+Idelalisib combination group, target cells were pre-treated with Idelalisib for 7 days prior to the ADCC assay measurements. The target cells were counted and stained using 10 μM CFSE end concentration. For DMSO treated target cells, an effector:target (E:T) ratio of 2:1 is chosen, corresponding to a cell density of 5×10^5/ml. The proliferative effect on target cells caused by Idelalisib treatment was included by adjusting the E:T ratio in inhibitor treated cells. The NK cells are counted and adjusted to 1×10^6/ml. The target cell killing assays were performed as follows: using 96 well plates, 100 μl of target cell suspension was added per well, followed by 100 μl cell suspension of NK cells to each well resulting in an E:T ratio of 2:1. The antibodies were diluted in a range of 10-0.00001 nM (corresponding to 1.5-0.0000015 μg/ml) in medium. Cells were centrifuged and target:effector cell-pellets were re-suspended in 100 μl antibody-containing medium or the according control solution. The assay was incubated for 4 h in CO2-incubator at 37° C. After 10 min incubation on ice, 50 μl DAPI solution was added to each well (final concentration 1 μg/ml) and incubated on ice for 10 min. The cell killing measurements were performed with FACS-Verse. Dead target cells were DAPI positive.
# In total, six experiments were performed in order to determine the mediation of ADCC on MEC-1 cells by the combination of MOR00208 and Idelalisib. […] The autoreactivity of the NK cells prevented a proper analysis in those two experiments.
# The % dead cells (raw data) from Tables 1-16 was analysed in the following way:
# [formula] [formula] [formula] where A is the treatment with MOR00208 alone; B is the treatment with Idelalisib alone; C is response to the control DMSO+RefMab33; AB is the combination of treatments A and B.
# In order to confirm the results of synergy as calculated using Clarke et al. above, the Combination Index (CI) method was applied to the % dead cells (raw data) of Tables 1-16. For CI calculations, we used 0.3, 1, 3 and 10 μM Idelalisib and three MOR208 concentrations (1.5, 0.015 and 0.0015 μg/ml).
# [1] = Experiment 1, Idelalisib 0.3 μM, MOR00208 0.01 nM (0.0015 μg/ml)
# [2] = Experiment 1, Idelalisib 0.3 μM, MOR00208 0.1 nM (0.015 μg/ml)
# [3] = Experiment 1, Idelalisib 0.3 μM, MOR00208 10 nM (1.5 μg/ml)
# [4] = Experiment 1, Idelalisib 1 μM, MOR00208 0.01 nM (0.0015 μg/ml)
# [5] = Experiment 1, Idelalisib 1 μM, MOR00208 0.1 nM (0.015 μg/ml)
# [6] = Experiment 1, Idelalisib 1 μM, MOR00208 10 nM (1.5 μg/ml)
# [7] = Experiment 1, Idelalisib 3 μM, MOR00208 0.01 nM (0.0015 μg/ml)
# [8] = Experiment 1, Idelalisib 3 μM, MOR00208 0.1 nM (0.015 μg/ml)
# [9] = Experiment 1, Idelalisib 3 μM, MOR00208 10 nM (1.5 μg/ml)
# [10] = Experiment 1, Idelalisib 10 μM, MOR00208 0.01 nM (0.0015 μg/ml)
# [11] = Experiment 1, Idelalisib 10 μM, MOR00208 0.1 nM (0.015 μg/ml)
# [12] = Experiment 1, Idelalisib 10 μM, MOR00208 10 nM (1.5 μg/ml)
# [13] = Experiment 2, Idelalisib 0.3 μM, MOR00208 0.01 nM (0.0015 μg/ml)
# [14] = Experiment 2, Idelalisib 0.3 μM, MOR00208 0.1 nM (0.015 μg/ml)
# [15] = Experiment 2, Idelalisib 0.3 μM, MOR00208 10 nM (1.5 μg/ml)
# [16] = Experiment 2, Idelalisib 1 μM, MOR00208 0.01 nM (0.0015 μg/ml)
# [17] = Experiment 2, Idelalisib 1 μM, MOR00208 01 nM (0.015 μg/ml)
# [18] = Experiment 2, Idelalisib 1 μM, MOR00208 10 nM (1.5 μg/ml)
# [19] = Experiment 2, Idelalisib 3 μM, MOR00208 0.01 nM (0.0015 μg/ml)
# [20] = Experiment 2, Idelalisib 3 μM, MOR00208 0.1 nM (0.015 μg/ml)
# [21] = Experiment 2, Idelalisib 3 μM, MOR00208 10 nM (1.5 μg/ml)
# [22] = Experiment 2, Idelalisib 10 μM, MOR00208 0.01 nM (0.0015 μg/ml)
# [23] = Experiment 2, Idelalisib 10 μM, MOR00208 0.1 nM (0.015 μg/ml)
# [24] = Experiment 2, Idelalisib 10 μM, MOR00208 10 nM (1.5 μg/ml)
# [25] = Experiment 3, Idelalisib 0.3 μM, MOR00208 0.01 nM (0.0015 μg/ml)
# [26] = Experiment 3, Idelalisib 0.3 μM, MOR00208 0.1 nM (0.015 μg/ml)
# [27] = Experiment 3, Idelalisib 0.3 μM, MOR00208 10 nM (1.5 μg/ml)
# [28] = Experiment 3, Idelalisib 1 μM, MOR00208 0.01 nM (0.0015 μg/ml)
# [29] = Experiment 3, Idelalisib 1 μM, MOR00208 0.1 nM (0.015 μg/ml)
# [30] = Experiment 3, Idelalisib 1 μM, MOR00208 10 nM (1.5 μg/ml)
# [31] = Experiment 3, Idelalisib 3 μM, MOR00208 0.01 nM (0.0015 μg/ml)
# [32] = Experiment 3, Idelalisib 3 μM, MOR00208 0.1 nM (0.015 μg/ml)
# [33] = Experiment 3, Idelalisib 3 μM, MOR00208 10 nM (1.5 μg/ml)
# [34] = Experiment 3, Idelalisib 10 μM, MOR00208 0.01 nM (0.0015 μg/ml)
# [35] = Experiment 3, Idelalisib 10 μM, MOR00208 0.1 nM (0.015 μg/ml)
# [36] = Experiment 3, Idelalisib 10 μM, MOR00208 10 nM (1.5 μg/ml)
# [37] = Experiment 4, Idelalisib 0.3 μM, MOR00208 0.01 nM (0.0015 μg/ml)
# [38] = Experiment 4, Idelalisib 0.3 μM, MOR00208 0.1 nM (0.015 μg/ml)
# [39] = Experiment 4, Idelalisib 0.3 μM, MOR00208 10 nM (1.5 μg/ml)
# [40] = Experiment 4, Idelalisib 1 μM, MOR00208 0.01 nM (0.0015 μg/ml)
# [41] = Experiment 4, Idelalisib 1 μM, MOR00208 0.1 nM (0.015 μg/ml)
# [42] = Experiment 4, Idelalisib 1 μM, MOR00208 10 nM (1.5 μg/ml)
# [43] = Experiment 4, Idelalisib 3 μM, MOR00208 0.01 nM (0.0015 μg/ml)
# [44] = Experiment 4, Idelalisib 3 μM, MOR00208 0.1 nM (0.015 μg/ml)
# [45] = Experiment 4, Idelalisib 3 μM, MOR00208 10 nM (1.5 μg/ml)
# [46] = Experiment 4, Idelalisib 10 μM, MOR00208 0.01 nM (0.0015 μg/ml)
# [47] = Experiment 4, Idelalisib 10 μM, MOR00208 0.1 nM (0.015 μg/ml)
# [48] = Experiment 4, Idelalisib 10 μM, MOR00208 10 nM (1.5 μg/ml)
molecule,measurement,setting,value
CC[C@H](Nc1ncnc2nc[nH]c12)c1nc2cccc(F)c2c(=O)n1-c1ccccc1 [Idelalisib],effect of the Idelalisib group greater than the control,"Experiment 1, Tables 1-3",~4%
same,% dead cells,[1],6.8%
same,% dead cells,[2],6.8%
same,% dead cells,[3],6.8%
same,% dead cells,[4],10.8%
same,% dead cells,[5],10.8%
same,% dead cells,[6],10.8%
same,% dead cells,[7],11.3%
same,% dead cells,[8],11.3%
same,% dead cells,[9],11.3%
same,% dead cells,[10],11.6%
same,% dead cells,[11],11.6%
same,% dead cells,[12],11.6%
same,% dead cells,[13],20.8%
same,% dead cells,[14],20.8%
same,% dead cells,[15],20.8%
same,% dead cells,[16],20.7%
same,% dead cells,[17],20.7%
same,% dead cells,[18],20.7%
same,% dead cells,[19],14.6%
same,% dead cells,[20],14.6%
same,% dead cells,[21],14.6%
same,% dead cells,[22],14.7%
same,% dead cells,[23],14.7%
same,% dead cells,[24],14.7%
same,% dead cells,[25],17.3%
same,% dead cells,[26],17.3%
same,% dead cells,[27],17.3%
same,% dead cells,[28],18.7%
same,% dead cells,[29],18.7%
same,% dead cells,[30],18.7%
same,% dead cells,[31],14.0%
same,% dead cells,[32],14.0%
same,% dead cells,[33],14.0%
same,% dead cells,[34],11.5%
same,% dead cells,[35],11.5%
same,% dead cells,[36],11.5%
same,% dead cells,[37],15.5%
same,% dead cells,[38],15.5%
same,% dead cells,[39],15.5%
same,% dead cells,[40],15.9%
same,% dead cells,[41],15.9%
same,% dead cells,[42],15.9%
same,% dead cells,[43],13.8%
same,% dead cells,[44],13.8%
same,% dead cells,[45],13.8%
same,% dead cells,[46],12.1%
same,% dead cells,[47],12.1%
same,% dead cells,[48],12.1%
same,cytotoxic effects against MEC-1 cells,Idelalisib alone,little to no cyctotoxic effects; also recorded: low cytotoxity activity
B1,% dead cells,[1],40.3%
same,% dead cells,[2],63.1%
same,% dead cells,[3],62.9%
same,% dead cells,[4],40.3%
same,% dead cells,[5],63.1%
same,% dead cells,[6],62.9%
same,% dead cells,[7],40.3%
same,% dead cells,[8],63.1%
same,% dead cells,[9],62.9%
same,% dead cells,[10],40.3%
same,% dead cells,[11],63.1%
same,% dead cells,[12],62.9%
same,% dead cells,[13],52.9%
same,% dead cells,[14],78.9%
same,% dead cells,[15],85.6%
same,% dead cells,[16],52.9%
same,% dead cells,[17],78.9%
same,% dead cells,[18],85.6%
same,% dead cells,[19],52.9%
same,% dead cells,[20],78.9%
same,% dead cells,[21],85.6%
same,% dead cells,[22],52.9%
same,% dead cells,[23],78.9%
same,% dead cells,[24],85.6%
same,% dead cells,[25],43.5%
same,% dead cells,[26],59.5%
same,% dead cells,[27],62.0%
same,% dead cells,[28],43.5%
same,% dead cells,[29],59.5%
same,% dead cells,[30],62.0%
same,% dead cells,[31],43.5%
same,% dead cells,[32],59.5%
same,% dead cells,[33],62.0%
same,% dead cells,[34],43.5%
same,% dead cells,[35],59.5%
same,% dead cells,[36],62.0%
same,% dead cells,[37],56.3%
same,% dead cells,[38],73.3%
same,% dead cells,[39],74.6%
same,% dead cells,[40],56.3%
same,% dead cells,[41],73.3%
same,% dead cells,[42],74.6%
same,% dead cells,[43],56.3%
same,% dead cells,[44],73.3%
same,% dead cells,[45],74.6%
same,% dead cells,[46],56.3%
same,% dead cells,[47],73.3%
same,% dead cells,[48],74.6%
